Changes are numbered by the printed parent chain. Values belong to the molecule of their own block, whether it stands above or below them.
Legend:
A204 = assay: In vitro cytotoxicity (WST-1), A204; format: cell-based; conditions: monolayer, 5 days
Experimental: (§1) • Aim: To evaluate the in vitro efficacy of Th-Ab12-ADC in different cell lines. Material and Methods: Cells were seeded either as monolayer (C2C12alpha10, C2C12alpha11 and A204) or as spheres (BT549, Hs578T, U3046MG, U3054MG and SJSA-1) and treated with the IgG1 isotype control Ctrl-ADC or Th-Ab12-ADC at different concentrations ([…]) for 5 days (C2C12alpha10, C2C12alpha11, A204 and SJSA-1) or 10 days (BT549, Hs578T, U3046MG and U3054MG). On the day of termination, the cells were incubated for 3-4 hours with WST-1, which measures the viable cells, and the plates were read at OD450 nm wavelength via SpectraMax. The dose response curves and IC50 values were generated in GraphPad Prism 9. The WST-1 assay is based on the cleavage of tetrazolium salt WST-1 for formazan by cellular mitochondrial dehydrogenases. […] The differences in IC50 values between control ADC and Th-Ab12-ADC supports a relatively large therapeutic window for each cell line (Table 3).

C2C12alpha11 = assay: In vitro cytotoxicity (WST-1), C2C12alpha11; format: cell-based, mouse; conditions: monolayer, 5 days
Experimental: as §1

C2C12alpha10 = assay: In vitro cytotoxicity (WST-1), C2C12alpha10; format: cell-based, mouse; conditions: monolayer, 5 days
Experimental: as §1

SJSA-1 = assay: In vitro cytotoxicity (WST-1), SJSA-1; format: cell-based; conditions: spheres, 5 days
Experimental: as §1

U3054MG = assay: In vitro cytotoxicity (WST-1), U3054MG; format: cell-based, human; conditions: spheres, 10 days
Experimental: as §1

Hs578T = assay: In vitro cytotoxicity (WST-1), Hs578T; format: cell-based; conditions: spheres, 10 days
Experimental: as §1

BT549 = assay: In vitro cytotoxicity (WST-1), BT549; format: cell-based; conditions: spheres, 10 days
Experimental: as §1

U3046MG = assay: In vitro cytotoxicity (WST-1), U3046MG; format: cell-based, human; conditions: spheres, 10 days
Experimental: as §1

[1] = biological target: T1, integrin alpha11 (C2C12alpha11 cells) (human, UniProt Q9UKX5); assay: FACS, C2C12alpha11 cells
T1 chain: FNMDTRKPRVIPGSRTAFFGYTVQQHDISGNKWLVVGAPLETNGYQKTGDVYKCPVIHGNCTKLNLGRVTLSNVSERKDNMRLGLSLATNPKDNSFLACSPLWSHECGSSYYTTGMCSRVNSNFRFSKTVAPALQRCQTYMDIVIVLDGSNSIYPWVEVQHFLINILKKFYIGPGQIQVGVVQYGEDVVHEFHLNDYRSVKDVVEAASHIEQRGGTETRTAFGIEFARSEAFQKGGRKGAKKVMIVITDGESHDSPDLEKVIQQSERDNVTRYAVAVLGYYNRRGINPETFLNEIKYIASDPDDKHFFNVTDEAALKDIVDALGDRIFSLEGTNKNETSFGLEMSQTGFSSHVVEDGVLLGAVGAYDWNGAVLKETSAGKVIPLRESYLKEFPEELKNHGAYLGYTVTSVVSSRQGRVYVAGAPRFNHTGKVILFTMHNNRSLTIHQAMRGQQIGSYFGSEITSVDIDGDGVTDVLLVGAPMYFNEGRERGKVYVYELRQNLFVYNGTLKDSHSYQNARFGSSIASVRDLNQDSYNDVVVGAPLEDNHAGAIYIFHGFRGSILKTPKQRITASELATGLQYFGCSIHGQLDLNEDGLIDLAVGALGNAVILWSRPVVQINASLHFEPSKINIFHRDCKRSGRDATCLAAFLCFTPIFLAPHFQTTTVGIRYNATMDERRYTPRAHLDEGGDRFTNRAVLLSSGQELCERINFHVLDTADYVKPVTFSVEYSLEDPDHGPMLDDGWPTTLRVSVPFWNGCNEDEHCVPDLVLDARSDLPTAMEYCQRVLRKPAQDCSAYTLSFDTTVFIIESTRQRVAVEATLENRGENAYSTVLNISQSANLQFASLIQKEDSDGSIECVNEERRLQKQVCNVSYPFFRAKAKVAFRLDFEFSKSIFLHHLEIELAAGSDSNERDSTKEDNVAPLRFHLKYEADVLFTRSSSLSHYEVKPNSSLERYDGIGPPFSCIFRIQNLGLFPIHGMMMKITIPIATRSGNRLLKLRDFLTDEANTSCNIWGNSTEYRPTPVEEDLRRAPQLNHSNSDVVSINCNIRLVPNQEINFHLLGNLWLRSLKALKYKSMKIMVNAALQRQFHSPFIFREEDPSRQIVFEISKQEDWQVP

[2] = biological target: T2, integrin alpha10 (alpha10beta1, cell-expressed) (human, UniProt O75578); assay: FACS, lower end of range 0.9-2.69 nM over seven cell lines
T2 chain: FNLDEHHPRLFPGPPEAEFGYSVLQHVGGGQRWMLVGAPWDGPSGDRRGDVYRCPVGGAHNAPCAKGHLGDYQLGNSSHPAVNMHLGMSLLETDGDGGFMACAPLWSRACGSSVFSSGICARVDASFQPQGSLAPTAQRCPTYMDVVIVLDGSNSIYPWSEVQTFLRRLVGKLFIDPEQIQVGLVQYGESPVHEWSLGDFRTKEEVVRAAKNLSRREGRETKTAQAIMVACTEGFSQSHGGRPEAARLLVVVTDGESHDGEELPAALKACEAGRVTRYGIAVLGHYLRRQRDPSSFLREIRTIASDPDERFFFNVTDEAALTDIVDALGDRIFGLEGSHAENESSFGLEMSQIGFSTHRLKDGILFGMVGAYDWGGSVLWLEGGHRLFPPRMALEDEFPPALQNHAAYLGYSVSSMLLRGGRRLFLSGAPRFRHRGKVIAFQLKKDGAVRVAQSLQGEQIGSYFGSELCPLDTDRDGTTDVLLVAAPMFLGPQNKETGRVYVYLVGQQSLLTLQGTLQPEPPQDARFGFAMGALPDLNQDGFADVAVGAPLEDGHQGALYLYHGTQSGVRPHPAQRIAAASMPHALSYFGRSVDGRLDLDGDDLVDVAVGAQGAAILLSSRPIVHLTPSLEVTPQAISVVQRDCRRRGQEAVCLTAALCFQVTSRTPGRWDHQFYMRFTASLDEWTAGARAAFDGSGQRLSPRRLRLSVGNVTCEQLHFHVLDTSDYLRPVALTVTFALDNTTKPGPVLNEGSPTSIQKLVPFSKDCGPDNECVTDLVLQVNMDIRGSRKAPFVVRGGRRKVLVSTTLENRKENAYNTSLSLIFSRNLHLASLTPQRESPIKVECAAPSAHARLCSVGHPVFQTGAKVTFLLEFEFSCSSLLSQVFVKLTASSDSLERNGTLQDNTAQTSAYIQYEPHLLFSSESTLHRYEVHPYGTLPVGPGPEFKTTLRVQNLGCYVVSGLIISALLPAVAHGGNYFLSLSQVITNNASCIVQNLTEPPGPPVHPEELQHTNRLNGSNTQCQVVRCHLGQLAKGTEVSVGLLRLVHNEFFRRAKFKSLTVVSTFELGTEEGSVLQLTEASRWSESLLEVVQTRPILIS

[3] = biological target: T2, integrin alpha10 (alpha10beta1, …); assay: FACS, upper end of range 0.9-2.69 nM over seven cell lines

Molecule: COc1cccc2c1C(=O)c1c(O)c3c(c(O)c1C2=O)CC(O)(C(=O)CO)CC3OC1CC2C(OC3C(OC)OCCN23)C(C)O1 [PNU-159682, 3′-deamino-3″-4′-anhydro-[2″(S)-methoxy-3″(R)-hydroxy-4″-morpholinyl]doxorubicin]
- IC50 (A204): 0.023 nM
- IC50 (C2C12alpha11): 0.018 nM
- IC50 (C2C12alpha10): 0.027 nM
- IC50 (SJSA-1): 0.077 nM
- IC50 (U3054MG): 0.145 nM
- IC50 (Hs578T): 0.981 nM
- IC50 (BT549): 1.4 nM
- IC50 (U3046MG): 0.077 nM

B1: Th-Ab15 (antibody, V domains shown)
VH: QVQLVQSGAEVKKPGASVKVSCKTSGYTFTEYYVIWVRQAPGQGLEWLGWIFPGSGRTYYSEKFRGRATITVDKSTSTAYMELSSLRSEDTAVYYCARDNYGSSGKFFAYWGQGTLVTVSS
VL: DVVMTQSPLSLPVTLGQPASISCRSSQSLVHSNGNTYLHWYQQKPGQPPKLLIYKVSNRFSGVPDRFSGSGSGTDFTLKISRVEAEDVGVYYCSQSTHVPYTFGQGTKLEIK
- binding result [1]: no binding

B2: Th-Ab11 (antibody, V domains shown)
VH: B1 VH with V34I, A68V, V72A
VL: B1 VL with Y92F
- binding result [1]: no binding

B5: Th-Ab12-ADC (antibody, V domains shown)
VH: B1 VH with V34I, A68V, V72A
VL: B1 VL
modifications: ADC, conjugated to PNU-159682-type payload; constant regions SEQ21 (heavy) and SEQ20 (light)
- EC50 [2]: > 0.9 nM
- binding result [1]: no binding
- EC50 [3]: < 2.69 nM

The next lines start with the values.

- binding result [1]: no binding
B3: Th-Ab12 (antibody, V domains shown)
VH: B1 VH with V34I, A68V, V72A
VL: B1 VL

- binding result [1]: no binding
B4: Th-Ab9 (antibody, V domains shown)
VH: B1 VH with V34I
VL: B1 VL

- binding result [1]: no binding
B6: Th-Ab14 (antibody, V domains shown)
VH: B1 VH
VL: B1 VL with Y92F

— patent US20260345803A1, “An Integrin Alpha10 Antibody Drug Conjugate” (Targinta AB, priority 2022, published 2026)
